This note sets out measurements from ChEMBL document CHEMBL5346859, “Dual-target Janus kinase (JAK) inhibitors: Comprehensive review on the JAK-based strategies for treating solid or hematological malignancies and immune-related diseases” (Eur J Med Chem, 2022).

Data set [1] has as its system MV4-11. Put plainly: Antitumor activity against human MV4-11 cells harboring FLT3 […] mutant xenografted acute myeloid leukemia BALB/c mouse model assessed as tumor growth inhibition at 40 mg/kg, po qd administered daily for 21 days relative to control. The data set is classed as functional. The settings on record: MV4-11, 504 h, time 21 day, read-out: TGI. For orientation: Xenograft models place foreign cells or tissue in a host animal.

Data set [2] in a line: Metabolic stability in rat liver microsomes assessed as half life by LC-MS/MS analysis. In kind it is ADME, Microsome. A general note: Liver microsomes are a subcellular fraction often used to study metabolism.
Data set [3] deals with T1, Tyrosine-protein kinase JAK2 (Homo sapiens, UniProt O60674). In words: Inhibition of JAK2 (unknown origin) using FAM-labeled peptide as substrate preincubated with compound for 10 mins followed by substrate addition and measured after 60 mins in presence of ATP.
T1 sequence (O60674 whole entry): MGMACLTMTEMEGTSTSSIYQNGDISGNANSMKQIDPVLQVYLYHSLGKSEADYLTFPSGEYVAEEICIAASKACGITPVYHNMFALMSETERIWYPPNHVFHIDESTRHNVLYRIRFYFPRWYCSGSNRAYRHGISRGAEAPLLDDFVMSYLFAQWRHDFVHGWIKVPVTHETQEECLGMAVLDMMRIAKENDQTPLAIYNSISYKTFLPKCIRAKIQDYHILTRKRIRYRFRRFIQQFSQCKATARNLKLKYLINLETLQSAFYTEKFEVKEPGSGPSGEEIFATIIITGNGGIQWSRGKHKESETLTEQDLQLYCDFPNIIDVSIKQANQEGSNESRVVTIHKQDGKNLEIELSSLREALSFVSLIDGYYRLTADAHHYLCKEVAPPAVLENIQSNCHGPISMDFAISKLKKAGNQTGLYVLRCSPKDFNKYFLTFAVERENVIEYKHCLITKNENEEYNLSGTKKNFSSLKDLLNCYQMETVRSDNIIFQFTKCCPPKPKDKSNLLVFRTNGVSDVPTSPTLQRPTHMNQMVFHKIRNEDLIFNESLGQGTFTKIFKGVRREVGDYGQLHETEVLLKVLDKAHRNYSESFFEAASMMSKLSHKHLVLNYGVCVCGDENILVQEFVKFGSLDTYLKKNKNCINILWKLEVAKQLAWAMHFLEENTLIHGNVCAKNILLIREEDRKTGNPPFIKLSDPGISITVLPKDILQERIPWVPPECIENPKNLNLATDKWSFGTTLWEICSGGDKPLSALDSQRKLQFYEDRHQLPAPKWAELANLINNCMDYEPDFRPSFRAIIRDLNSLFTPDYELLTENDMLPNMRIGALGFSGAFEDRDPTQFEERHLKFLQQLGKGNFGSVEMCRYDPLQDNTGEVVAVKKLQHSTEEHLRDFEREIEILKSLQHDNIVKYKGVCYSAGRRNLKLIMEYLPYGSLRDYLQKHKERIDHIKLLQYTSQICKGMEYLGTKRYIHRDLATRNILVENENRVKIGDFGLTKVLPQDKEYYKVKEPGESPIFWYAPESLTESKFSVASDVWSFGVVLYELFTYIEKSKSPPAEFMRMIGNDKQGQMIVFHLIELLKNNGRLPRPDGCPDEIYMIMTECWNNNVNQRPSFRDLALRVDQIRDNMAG
Data set [4] relates to MOLM-13. Put plainly: Antiproliferative activity against human MOLM-13 cells assessed as inhibition of cell growth incubated for 48 hrs by CCK-8 assay. The data set is classed as functional, cell-based. The settings on record: MOLM-13, 48 h. In general terms: Tetrazolium assays rely on reduction of a dye to a coloured formazan, in cell work by metabolically active cells.
Data set [5] has as its system HEL. Put plainly: Antiproliferative activity against HEL cells assessed as inhibition of cell growth incubated for 48 hrs by CCK-8 assay. In kind it is functional, cell-based. The settings on record: Homo sapiens.
In data set [6] the target is T2, Receptor-type tyrosine-protein kinase FLT3 (Homo sapiens, UniProt P36888).
T2 sequence (P36888 whole entry): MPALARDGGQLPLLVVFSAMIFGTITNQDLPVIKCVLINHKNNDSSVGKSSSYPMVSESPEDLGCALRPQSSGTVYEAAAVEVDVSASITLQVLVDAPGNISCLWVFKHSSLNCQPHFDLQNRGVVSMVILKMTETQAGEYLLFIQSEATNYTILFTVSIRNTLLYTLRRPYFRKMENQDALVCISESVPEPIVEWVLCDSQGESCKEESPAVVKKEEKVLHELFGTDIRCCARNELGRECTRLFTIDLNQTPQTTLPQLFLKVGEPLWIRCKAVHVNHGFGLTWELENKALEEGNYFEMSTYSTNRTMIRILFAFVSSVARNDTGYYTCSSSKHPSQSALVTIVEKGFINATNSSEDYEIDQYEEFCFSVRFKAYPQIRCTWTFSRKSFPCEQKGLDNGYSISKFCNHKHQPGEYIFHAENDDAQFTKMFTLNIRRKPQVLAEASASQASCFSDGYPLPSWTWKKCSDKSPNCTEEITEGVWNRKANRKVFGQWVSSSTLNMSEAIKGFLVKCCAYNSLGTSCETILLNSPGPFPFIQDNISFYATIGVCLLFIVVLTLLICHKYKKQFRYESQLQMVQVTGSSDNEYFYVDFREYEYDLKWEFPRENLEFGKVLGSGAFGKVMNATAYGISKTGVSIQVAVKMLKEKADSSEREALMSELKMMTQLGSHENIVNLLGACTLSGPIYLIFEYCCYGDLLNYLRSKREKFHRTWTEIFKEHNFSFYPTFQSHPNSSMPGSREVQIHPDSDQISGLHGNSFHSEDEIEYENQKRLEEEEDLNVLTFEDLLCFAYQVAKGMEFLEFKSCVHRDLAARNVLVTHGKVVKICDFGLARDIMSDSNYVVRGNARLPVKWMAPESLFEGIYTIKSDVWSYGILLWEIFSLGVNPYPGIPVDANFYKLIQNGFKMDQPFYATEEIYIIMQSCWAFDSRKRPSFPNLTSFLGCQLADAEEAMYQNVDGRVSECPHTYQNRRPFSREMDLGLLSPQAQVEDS
In words: Inhibition of FLT3 (unknown origin) using FAM-labeled peptide as substrate preincubated with compound for 10 mins followed by substrate addition and measured after 60 mins in presence of ATP.

The target of data set [7] is T3, Tyrosine-protein kinase JAK1 (Homo sapiens, UniProt P23458). In words: Inhibition of recombinant GST-tagged JAK1 catalytic domain (unknown origin) using pEY (4:1) as substrate incubated for 120 mins in presence of 33P-labeled ATP.
T3 sequence (P23458 whole entry, the tested form may be a part): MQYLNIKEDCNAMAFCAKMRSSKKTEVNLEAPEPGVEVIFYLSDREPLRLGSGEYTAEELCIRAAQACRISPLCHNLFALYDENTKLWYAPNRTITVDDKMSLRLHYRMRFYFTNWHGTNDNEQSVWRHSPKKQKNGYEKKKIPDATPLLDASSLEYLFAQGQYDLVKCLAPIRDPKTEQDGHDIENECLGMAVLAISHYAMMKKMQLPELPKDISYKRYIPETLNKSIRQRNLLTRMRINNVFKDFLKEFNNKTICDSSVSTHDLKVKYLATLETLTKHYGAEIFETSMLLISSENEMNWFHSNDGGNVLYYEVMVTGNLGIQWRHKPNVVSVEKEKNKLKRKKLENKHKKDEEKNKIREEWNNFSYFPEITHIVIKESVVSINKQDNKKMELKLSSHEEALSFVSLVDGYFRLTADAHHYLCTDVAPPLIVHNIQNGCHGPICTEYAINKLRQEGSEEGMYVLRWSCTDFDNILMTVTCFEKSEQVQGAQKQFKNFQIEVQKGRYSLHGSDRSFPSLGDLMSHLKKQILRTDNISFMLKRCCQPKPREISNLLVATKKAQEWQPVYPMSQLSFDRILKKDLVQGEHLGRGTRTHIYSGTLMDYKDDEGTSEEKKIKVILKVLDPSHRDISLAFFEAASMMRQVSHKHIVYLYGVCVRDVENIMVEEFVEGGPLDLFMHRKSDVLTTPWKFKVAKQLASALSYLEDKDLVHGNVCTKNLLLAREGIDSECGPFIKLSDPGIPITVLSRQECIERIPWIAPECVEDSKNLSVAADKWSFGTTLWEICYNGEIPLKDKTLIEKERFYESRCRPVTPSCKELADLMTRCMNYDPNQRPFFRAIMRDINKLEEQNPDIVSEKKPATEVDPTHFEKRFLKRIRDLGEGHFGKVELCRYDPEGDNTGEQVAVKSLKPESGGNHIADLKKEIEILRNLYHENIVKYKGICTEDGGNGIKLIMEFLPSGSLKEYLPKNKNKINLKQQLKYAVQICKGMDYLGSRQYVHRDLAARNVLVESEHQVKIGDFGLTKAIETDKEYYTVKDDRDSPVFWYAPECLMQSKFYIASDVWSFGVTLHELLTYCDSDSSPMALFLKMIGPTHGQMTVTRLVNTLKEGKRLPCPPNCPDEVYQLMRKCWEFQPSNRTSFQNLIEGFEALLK
For data set [8], the system named is A2058. In words: Antitumor activity against human A2058 cells xenografted in NSG mouse assessed as tumor growth inhibition at 25 mg/kg, po administered twice daily for 18 days relative to control. The data set is classed as functional. The settings on record: A2058, 432 h, time 18 day, read-out: TGI.
Data set [9] addresses T4, Non-receptor tyrosine-protein kinase TYK2 (Homo sapiens, UniProt P29597). In words: Inhibition of recombinant GST-tagged TYK2 catalytic domain (unknown origin) using pEY (4:1) as substrate incubated for 120 mins in presence of 33P-labeled ATP.
The target in data set [10] is T1, Tyrosine-protein kinase JAK2. Put plainly: Inhibition of recombinant GST-tagged JAK2 catalytic domain (unknown origin) using pEY (4:1) as substrate incubated for 120 mins in presence of 33P-labeled ATP.
Data set [11] has as its target T5, Proto-oncogene tyrosine-protein kinase Src (Homo sapiens, UniProt P12931). Put plainly: Inhibition of recombinant GST-tagged c-Src catalytic domain (unknown origin) using pEY (4:1) as substrate incubated for 120 mins in presence of 33P-labeled ATP.
Data set [12] has as its target T1, Tyrosine-protein kinase JAK2.
Data set [13] concerns the target T2, Receptor-type tyrosine-protein kinase FLT3.
Data set [14] deals with Serine/threonine-protein kinase MARK1 (Homo sapiens, UniProt Q9P0L2). Put plainly: Inhibition of MARK1 (unknown origin).
A short description of data set [15]: Cytotoxicity against human CLL cells assessed inhibition of cell growth incubated for 72 hrs by propidium iodide staining based flow cytometry analysis. The data set is classed as functional.
Data set [16] has as its target Macrophage colony-stimulating factor 1 receptor (Homo sapiens, UniProt P07333). Put plainly: Inhibition of FMS (unknown origin).
For data set [17], the target named is Vascular endothelial growth factor receptor 3 (Homo sapiens, UniProt P35916). Put plainly: Inhibition of FLT4 (unknown origin).
A short description of data set [18]: Inhibition of JAK/STAT signaling pathway in human CD8-positive T cells assessed as inhibition of IL-2 stimulated STAT5 phosphorylation at Y694 residue preincubated for 1 hr followed by IL-2 stimulation and measured after 15 mins by flow cytometry analysis. The data set is classed as cell-based. The settings on record: CD8-positive T cell.
The nature of data set [19]: Inhibition of JAK/STAT signaling pathway in human CD14 positive monocytes assessed as inhibition of IL-4 stimulated STAT6 phosphorylation at Y641 residue preincubated for 1 hr followed by IL-4 stimulation and measured after 15 mins by flow cytometry analysis. The data set is classed as cell-based.
The target in data set [20] is Serine/threonine-protein kinase MARK2 (Homo sapiens, UniProt Q7KZI7). In words: Inhibition of PAR1B-a (unknown origin).
The target of data set [21] is Ribosomal protein S6 kinase alpha-6 (Homo sapiens, UniProt Q9UK32). In words: Inhibition of RSK4 (unknown origin).
The nature of data set [22]: Inhibition of JAK/STAT signaling pathway in human CD14 positive monocytes assessed as inhibition of IL-6 stimulated STAT3 phosphorylation at Y705 residue preincubated for 1 hr followed by IL-6 stimulation and measured after 15 mins by flow cytometry analysis. The data set is classed as cell-based.
Data set [23] in a line: Inhibition of JAK/STAT signaling pathway in human CD19 positive B cells assessed as inhibition of IL-4 stimulated STAT6 phosphorylation at Y641 residue preincubated for 1 hr followed by IL-4 stimulation and measured after 15 mins by flow cytometry analysis. The data set is classed as cell-based. The settings on record: CD19 positive B cell.
Data set [24] deals with Mitogen-activated protein kinase kinase kinase 9 (Homo sapiens, UniProt P80192). Put plainly: Inhibition of MLK1 (unknown origin).
Data set [25] deals with Proto-oncogene tyrosine-protein kinase receptor Ret (Homo sapiens, UniProt P07949). In words: Inhibition of RET (unknown origin).
Data set [26] in a line: Inhibition of JAK/STAT signaling pathway in human CD4+ve Th cells assessed as inhibition of IL-4 stimulated STAT6 phosphorylation at Y641 residue preincubated for 1 hr followed by IL-4 stimulation and measured after 15 mins by flow cytometry analysis. In kind it is cell-based.
Data set [27] deals with Mitogen-activated protein kinase kinase kinase kinase 2 (Homo sapiens, UniProt Q12851). Put plainly: Inhibition of GCK (unknown origin).
Data set [28] in a line: Inhibition of JAK/STAT signaling pathway in human CD8-positive T cells assessed as inhibition of IL-4 stimulated STAT6 phosphorylation at Y641 residue preincubated for 1 hr followed by IL-4 stimulation and measured after 15 mins by flow cytometry analysis. In kind it is cell-based. As to conditions: CD8-positive T cell.
Data set [29] deals with Tyrosine-protein kinase ITK/TSK (Homo sapiens, UniProt Q08881). In words: Inhibition of ITK (unknown origin).
Tyrosine-protein kinase ITK/TSK, sequence (Q08881 whole entry): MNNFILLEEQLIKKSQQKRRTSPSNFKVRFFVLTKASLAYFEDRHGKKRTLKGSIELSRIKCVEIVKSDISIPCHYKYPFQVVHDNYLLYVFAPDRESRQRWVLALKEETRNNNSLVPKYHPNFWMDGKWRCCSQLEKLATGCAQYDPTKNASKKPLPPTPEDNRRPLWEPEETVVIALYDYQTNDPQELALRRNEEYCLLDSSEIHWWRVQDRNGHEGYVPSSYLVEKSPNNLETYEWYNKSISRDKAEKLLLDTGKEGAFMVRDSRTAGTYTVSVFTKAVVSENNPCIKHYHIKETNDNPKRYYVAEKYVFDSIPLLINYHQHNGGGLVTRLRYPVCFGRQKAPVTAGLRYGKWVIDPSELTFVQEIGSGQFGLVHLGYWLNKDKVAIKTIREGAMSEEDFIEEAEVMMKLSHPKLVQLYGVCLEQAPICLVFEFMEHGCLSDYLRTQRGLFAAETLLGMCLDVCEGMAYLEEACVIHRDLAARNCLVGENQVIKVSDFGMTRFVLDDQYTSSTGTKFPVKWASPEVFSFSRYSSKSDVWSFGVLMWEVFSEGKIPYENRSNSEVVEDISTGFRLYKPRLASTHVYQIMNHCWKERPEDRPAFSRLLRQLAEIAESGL
Data set [30] has as its target Serine/threonine-protein kinase 3 (Homo sapiens, UniProt Q13188). Put plainly: Inhibition of MST2 (unknown origin).
A short description of data set [31]: Inhibition of JAK/STAT signaling pathway in human CD14 positive monocytes assessed as inhibition of GM-CSF stimulated STAT5 phosphorylation at Y694 residue preincubated for 1 hr followed by GM-CSF stimulation and measured after 15 mins by flow cytometry analysis. The data set is classed as cell-based.
Data set [32] deals with Serine/threonine-protein kinase Chk1 (Homo sapiens, UniProt O14757). Put plainly: Inhibition of CHK1 (unknown origin).
Serine/threonine-protein kinase Chk1, sequence (O14757 whole entry): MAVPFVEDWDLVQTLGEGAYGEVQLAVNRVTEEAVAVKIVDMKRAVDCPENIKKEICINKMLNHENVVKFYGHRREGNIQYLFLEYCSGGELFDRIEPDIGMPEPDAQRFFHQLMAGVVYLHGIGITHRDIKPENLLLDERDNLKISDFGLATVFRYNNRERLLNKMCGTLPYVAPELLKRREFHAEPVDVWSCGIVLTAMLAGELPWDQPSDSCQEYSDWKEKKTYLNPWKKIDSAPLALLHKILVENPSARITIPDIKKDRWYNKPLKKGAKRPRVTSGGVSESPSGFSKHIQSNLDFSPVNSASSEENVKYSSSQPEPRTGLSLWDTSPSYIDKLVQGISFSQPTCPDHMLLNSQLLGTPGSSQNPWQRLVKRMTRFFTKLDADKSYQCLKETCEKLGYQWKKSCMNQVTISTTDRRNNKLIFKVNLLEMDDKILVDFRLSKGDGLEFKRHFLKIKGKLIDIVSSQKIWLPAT
Data set [33] can be described thus: Inhibition of JAK/STAT signaling pathway in human CD4+ve Th cells assessed as inhibition of IL-2 stimulated STAT5 phosphorylation at Y694 residue preincubated for 1 hr followed by IL-2 stimulation and measured after 15 mins by flow cytometry analysis. The data set is classed as cell-based.
In data set [34] the target is Ribosomal protein S6 kinase alpha-3 (Homo sapiens, UniProt P51812). In words: Inhibition of RSK2 (unknown origin).
For data set [35], the system named is MIA PaCa-2. In words: Antiproliferative activity against human MIA PaCa-2 cells assessed as inhibition of cell growth incubated for 48 hrs by MTS assay. In kind it is functional, cell-based. The settings on record: MIA PaCa-2, 48 h.
Data set [36] concerns the target T1, Tyrosine-protein kinase JAK2. Put plainly: Inhibition of recombinant JAK2 (unknown origin) incubated for 120 mins in presence of [33P]-ATP by hotspot assay.
Data set [37] deals with T3, Tyrosine-protein kinase JAK1. In words: Inhibition of recombinant JAK1 (unknown origin) incubated for 120 mins in presence of [33P]-ATP by hotspot assay.
The target of data set [38] is T5, Proto-oncogene tyrosine-protein kinase Src. Put plainly: Inhibition of recombinant c-Src (unknown origin) incubated for 120 mins in presence of [33P]-ATP by hotspot assay.
Data set [39] addresses T4, Non-receptor tyrosine-protein kinase TYK2. Put plainly: Inhibition of recombinant TYK2 (unknown origin) incubated for 120 mins in presence of [33P]-ATP by hotspot assay.

T4 sequence (P29597 whole entry, the tested form may be a part): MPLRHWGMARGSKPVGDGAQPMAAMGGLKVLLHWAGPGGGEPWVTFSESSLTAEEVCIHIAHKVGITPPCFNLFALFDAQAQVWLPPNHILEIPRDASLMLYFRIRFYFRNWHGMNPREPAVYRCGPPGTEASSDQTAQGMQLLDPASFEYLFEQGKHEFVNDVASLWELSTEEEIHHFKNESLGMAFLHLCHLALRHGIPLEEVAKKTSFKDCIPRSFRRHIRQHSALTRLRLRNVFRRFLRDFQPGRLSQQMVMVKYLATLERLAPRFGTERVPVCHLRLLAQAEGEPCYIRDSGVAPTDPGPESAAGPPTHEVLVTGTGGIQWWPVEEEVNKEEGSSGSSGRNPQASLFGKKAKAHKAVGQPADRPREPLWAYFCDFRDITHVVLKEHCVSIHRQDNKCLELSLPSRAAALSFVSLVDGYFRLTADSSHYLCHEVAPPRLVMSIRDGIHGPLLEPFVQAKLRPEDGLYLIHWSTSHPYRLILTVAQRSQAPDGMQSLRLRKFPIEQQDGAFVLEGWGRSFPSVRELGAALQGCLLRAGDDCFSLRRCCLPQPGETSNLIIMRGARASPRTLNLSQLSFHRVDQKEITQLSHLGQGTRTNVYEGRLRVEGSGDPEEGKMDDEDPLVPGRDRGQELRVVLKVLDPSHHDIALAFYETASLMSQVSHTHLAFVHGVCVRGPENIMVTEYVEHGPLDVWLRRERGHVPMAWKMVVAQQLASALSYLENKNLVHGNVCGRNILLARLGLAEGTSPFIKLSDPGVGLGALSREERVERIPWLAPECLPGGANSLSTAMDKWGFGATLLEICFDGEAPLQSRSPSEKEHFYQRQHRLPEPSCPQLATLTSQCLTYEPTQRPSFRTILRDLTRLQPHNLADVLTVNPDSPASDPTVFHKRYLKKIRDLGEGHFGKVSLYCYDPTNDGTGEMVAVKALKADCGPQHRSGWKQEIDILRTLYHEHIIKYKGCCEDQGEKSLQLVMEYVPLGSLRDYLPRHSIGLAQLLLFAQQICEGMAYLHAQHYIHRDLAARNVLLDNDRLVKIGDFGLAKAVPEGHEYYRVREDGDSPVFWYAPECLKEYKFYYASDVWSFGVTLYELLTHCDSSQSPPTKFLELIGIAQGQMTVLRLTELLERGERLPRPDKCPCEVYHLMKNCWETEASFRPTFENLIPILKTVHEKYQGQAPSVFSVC
T5 sequence (P12931 2-536 limits assumed): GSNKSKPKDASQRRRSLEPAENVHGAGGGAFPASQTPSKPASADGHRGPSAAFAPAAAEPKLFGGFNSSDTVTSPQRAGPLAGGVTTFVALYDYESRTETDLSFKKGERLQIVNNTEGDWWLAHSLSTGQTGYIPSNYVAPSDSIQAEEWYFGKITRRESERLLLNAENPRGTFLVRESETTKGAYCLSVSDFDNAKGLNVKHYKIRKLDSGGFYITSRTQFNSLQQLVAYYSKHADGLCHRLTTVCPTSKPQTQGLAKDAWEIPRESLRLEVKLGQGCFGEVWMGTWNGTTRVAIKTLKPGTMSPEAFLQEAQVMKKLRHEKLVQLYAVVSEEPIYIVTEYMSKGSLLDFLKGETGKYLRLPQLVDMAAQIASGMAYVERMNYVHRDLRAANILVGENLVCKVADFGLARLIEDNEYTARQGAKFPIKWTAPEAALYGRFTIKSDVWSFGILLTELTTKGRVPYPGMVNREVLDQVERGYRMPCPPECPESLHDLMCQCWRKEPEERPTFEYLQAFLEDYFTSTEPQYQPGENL

With `CN1C/C=C/CCOc2cccc(c2)-c2ccnc(n2)Nc2cccc(c2)C1` [ZOTIRACICLIB], the inhibition in vivo at 40 mg/kg in data set [1] was found to be 113%.

Broadly, the half-life is the time needed for the level to fall by half in the phase considered. One may read the IC50 as the concentration that inhibits the measured activity by half. For the compound `CC(=O)c1ccc(NC(=O)N2CCN(c3nc(Nc4ccc(N5CCOCC5)cc4)ncc3Cl)CC2)cc1`, the half-life in data set [2] worked out at 31 min. Moreover, the IC50 was 1.8 nM in [3], 19 nM in data set [4], 500 nM in [5] and 0.68 nM in [6].

Take `O=C1Nc2cc(Br)ccc2/C1=C1/Nc2ccccc2/C1=N\OCCN1CCNCC1`: the IC50 in data set [7] amounted to 600 nM; in [9] it was 50 nM; in data set [10], 28 nM; in [11], 0.2 nM. Also, the inhibition in vivo at 25 mg/kg in data set [8] was 50%.

Turning to `COc1ccc2cc1COC/C=C/COCc1cccc(c1)-c1ccnc(n1)N2`, the IC50 in data set [12] was found to be 70 nM; in data set [13], 190 nM.

`CCS(=O)(=O)N1CCN(c2ccc(Nc3ncc(C(N)=O)c(NC4CC4)n3)cc2)CC1` [CERDULATINIB]: the IC50 was 4 nM in data set [14]; 370 nM in data set [15]; 4 nM in [16]; 4 nM in [17]; under 1000 nM in data set [18]; under 1000 nM in [19]. Moreover, the IC50 in [20] was 4 nM; in data set [21], 4 nM; in [22], under 1000 nM; in [23], under 1000 nM; in [24], 4 nM; in data set [25], 4 nM. For the same compound, the IC50 in [26] was under 1000 nM; in data set [27] it was 4 nM; in data set [28], under 1000 nM; in data set [29] it was 4 nM; in data set [13], 4 nM; in [30], 4 nM. Besides, the IC50 in [31] is over 4000 nM; in data set [32], 4 nM; in data set [33], under 1000 nM; in data set [34], 4 nM.

As for `COc1ccc2c(c1)/C(=C1/Nc3ccccc3/C1=N\OCC(O)CO)C(=O)N2` (stereo not given), the IC50 in [35] turned out to be 680 nM; in [36], 74.1 nM; in data set [37], 10.4 nM; in [38] it was 10.4 nM; in data set [39], 0.7 nM.
